This is an account of results in patent US5036046A, “Method for enhancing healing of corneal endothelial wounds” (Eye Research Institute of Retina Foundation, Inc., priority 1988, dated 1991).

“Also recorded” adds a separate entry of the source. Where two headings read alike, the source gives them in different places.

Assay [1] deals with cultured rabbit corneal endothelium. The experiment in a line: Pharmacological regulation of morphology and mitosis in cultured rabbit corneal endothelium. Type of assay: cell-based.
Assay [2] has as its system rabbit corneal endothelial cells. Put plainly: Cell shape morphometry of cultured rabbit corneal endothelial cells (Example 1). To be noted: for potentiation of EGF-induced elongation: 10^-5 M (equimolar), in presence of EGF; for rank order of potency on corneal endothelial cell shape: cyclooxygenase inhibitors, with EGF; for cell shape at confluence: cells cultured seven days in the presence of the agent; for distribution of major axes (Amax): versus control.

Assay [3] relates to cultured corneal endothelial cells. To be noted: control cultures and cultures with EGF added.
The test system of assay [4] is Corneal endothelial cells. The experiment in a line: f-actin labelling with rhodamine labelled phallacidin in cultured corneal endothelial cells. To be noted: 1 week in culture.
Assay [5] has as its system endothelium of excised corneas. Put plainly: Cell migration near the wound boundary in excised corneas. Type of assay: cell-based, New Zealand white rabbits. Particulars: EGF 10 ng/ml, indomethacin 1 μM in M-K medium.
The next assay concerns cat corneal endothelium. Particulars: 22° C.; cited from earlier work.
Assay [6] concerns most cell culture systems. To be noted: cited from earlier work.
In assay [7] the test system is endothelium of excised corneas. Put plainly: Shape of the cells near the wound boundary in excised corneas.
Assay [8] concerns endothelium of excised corneas. The experiment in a line: Endothelial wound area / closure in excised corneas (specular microscopy).
The test system of assay [9] is Corneal endothelial cells. Put plainly: Transmission electron microscopy of pharmacologically modulated endothelial phenotypes. To be noted: treated cultures.
Setting [10] is: agent added to TPA containing medium.

`C=C[C@@]1(C)CC(=O)[C@]2(O)[C@@]3(C)[C@@H](O)CCC(C)(C)[C@@H]3[C@H](O)[C@H](OC(C)=O)[C@@]2(C)O1` [Forskolin]: in [1] (agent added with EGF and INDO), the “effect on EGF and INDO-induced elongation” value was “prevented”; the “effect on cell density / mitosis in presence of EGF and INDO” value is “inhibited endothelial mitosis”.
Take `CCCCCCCCCCCCCC(=O)O[C@@H]1[C@@H](C)[C@@]2(O)[C@@H](C=C(CO)C[C@]3(O)C(=O)C(C)=C[C@@H]23)[C@H]2C(C)(C)[C@]12OC(C)=O` [TPA]: in assay [1], the “cell density / mitosis, agent alone” value is reported as “increased cell density” and the “cell shape / elongation, agent alone” value was “caused elongation”.
Regarding `C[C@@H]1C[C@H]2[C@@H]3CCC4=CC(=O)C=C[C@]4(C)[C@@]3(F)[C@@H](O)C[C@]2(C)[C@@]1(O)C(=O)CO` [dexamethasone], the “potentiation of EGF-induced elongation” value in [2] was “has no effect”.
`CC(C(=O)O)c1ccc(-c2ccccc2)c(F)c1` (stereo not shown) [flurbiprofen]: the “rank order of potency on corneal endothelial cell shape” value (“rank order of potency” below) in assay [2] was “indomethacin<suprofen<flurbiprofen”.
Take `COc1ccc2c(c1)c(CC(=O)O)c(C)n2C(=O)c1ccc(Cl)cc1` [indomethacin]: in [1] (setting [10]), the “effect on TPA-induced elongation” value is reported as “marked enhancement of cellular elongation” and the “effect on cell density / mitogenic response to TPA” value is “had no effect on final cell density”. The “synthesis of pgE2” value in [3] is listed as “totally inhibits”. Also, in assay [2], the “cell shape at confluence” value is “elongated at confluence with a stellate shape” and the “rank order of potency” value was “indomethacin<suprofen<flurbiprofen”. The “distribution of major axes (Amax)” value in [2] (cultured with agent) was “increases”. Further, the f-actin staining pattern result in assay [4] is “diffuse reticular staining throughout the cytoplasm”.
In the case of `CCCCC[C@H](O)/C=C/[C@@H]1[C@@H](C/C=C\CCCC(=O)O)[C@@H](O)C[C@H]1O` [pgF2α], in [2] (increasing concentrations added to cells grown with EGF and indomethacin), the “effect on the elongation of Amax produced by EGF and indomethacin” value was “has no effect”.
Consider `CC(C(=O)O)c1ccc(C(=O)c2cccs2)cc1` (stereo not shown) [suprofen], for which, in assay [2], the “potentiation of EGF-induced elongation” value is “Potentiation of EGF-induced elongation also occurs” and the “rank order of potency” value was “indomethacin<suprofen<flurbiprofen”.
Regarding Cholera toxin, in assay [1], the “cell shape / elongation, agent alone” value is recorded as “had no effect on cell shape”; the “effect on EGF and INDO-induced elongation” value was “antagonized”; the “effect on EGF-induced elongation” value was “EGF-induced elongation did not occur”; the “effect on TPA-induced elongation” value is recorded as “did not prevent elongation”. Also, in assay [1], the “effect on cell density / mitogenic response to TPA” value is reported as “potentiate the mitogenic response”; the “effect on cell density / mitosis in presence of EGF and INDO” value is given as “without preventing increased cell density”; the “effect on the mitogenic effect of EGF” value is reported as “potentiated”.
Take Pertussis toxin: in [1], the “cell density / mitosis, agent alone” value is given as “had no effect on either parameter”; the “cell density in combination with EGF or INDO” value was “without significantly altering cell density”; the “cell shape / elongation, agent alone” value is listed as “had no effect on either parameter”; the “cell shape in combination with EGF or INDO” value was “restored polygonal cell shape”.
For the molecule epidermal growth factor [EGF], the “migration of cells near the wound boundary compared with the control group” value in assay [5] is “migrated significantly more; also recorded: significantly increased migration”. The “time for association to be complete” value in the assay with cat corneal endothelium was “approximately 120 minutes”. Moreover, in assay [6], the “time at which DNA synthesis reaches a maximum” value was “about 22 hours” and the “time at which increased DNA synthesis begins after addition” value is “approximately 15 hours”. In addition, the “synthesis of pgE2” value in [3] is reported as “unaffected”. For the same molecule, in [7] (EGF+indomethacin at 50, 100, 150 minutes, EGF at 100, 150 minutes, p<0.001), the “relative average percent change of the shape factor, difference from control (FIG. 3)” value was “significantly different from the control group”. In addition, the “time of the peak of the shape change” value in assay [7] (one cornea of each group, control 200 minutes) worked out at 150 min. The “wound closure time compared with the control group” value in [8] (EGF 10 ng/ml, indomethacin 1 μM in M-K medium) is on record as “shortened the wound closure time”. The “time of maximum wound area after wounding” value in [8] (EGF 10 ng/ml, indomethacin 1 μM in M-K medium, control 20 minutes) came to 10 min. Further, in assay [8] (EGF 10 ng/ml, indomethacin 1 μM in M-K medium, control about 240 minutes), the “time for wound area to decrease to 50% of the original size” value was no more than 120 min. Also, the “time for wounds to close to 80% of the original size” value in assay [8] (after wounding, EGF treated) is no more than 250 min. Also, the cell density result in [2] (at confluence, versus control conditions) is on record as “little or no effect”. Further, the “cell shape at confluence” value in assay [2] is given as “spindle-shaped at confluence”. Also, the “distribution of major axes (Amax)” value in assay [2] (cultured with agent) is recorded as “significantly greater distribution of major axes”. In addition, in assay [2] (cultured with agent, perfectly round cell 3.14), the “ratio Per/Amax” value is given as “decreases significantly”. The “ultrastructure by transmission electron microscopy” value in assay [9] is reported as “Junctional complexes were absent”.
